Patent publication US12102672B2, “Immunogenic sequences from a phage tail length tape measure protein, bacteria expressing the same and their use in treating a cancer” (INSTITUT GUSTAVE ROUSSY, priority 2017, dated 2024)
“Also recorded” adds a separate entry of the source.

Assays:
splenic CD8+ T cells = assay: IFNγ ELISpot recall assay of splenic CD8+ T cells with DCs pulsed with heat-inactivated bacteria or peptides; format: cell-based, mice; conditions: for memory Tc1 immune response (IFNγ spots) to BM-DC infected with EH isolates: Example 2, FIG. 10, splenic CD8+ T cells after gavage + CTX, ELISPOT at 24 hrs; for specific TC1 immune responses after restimulation with E. hirae strains loaded onto DC: Example 12, FIG. 27D, prime-boost exposure + CTX
Procedure: FIG. 9. Experimental immunization protocols to elucidate the immunogenicity of EH peptides. […] 5 days after the first oral gavage, mice are treated with CTX. One week post-CTX, CD8+ T cells are isolated from spleen. These CD8+ T cells are incubated with dendritic cells (DCs) pulsed with 20 μg/ml of peptides (during 1 hour) or with heat-inactivated bacteria (during 6 hours). Inactivation of bacteria consists in incubation at 65° C. during 2 hours. After 24 hours of culture, ELIspot of IFNγ is performed.
FIG. 10. Cross-reactivity between the two E. hirae 708 and 13144 species for CTL splenic reactivity. Number of IFNγ spot representing IFNγ-secreting CD8+ T cells after co-culture with DCs pre-incubated with or without heat-inactivated bacteria (708, 13144, EH17 and L. plantarum).
FIG. 13. Peptides from group 7 containing the TMP1 and TMP2 epitopes activate CD8+ T cells from spleen of mice immunized against E. hirae 13144. Number of IFNγ spot, representing IFNγ-secreting CD8+ T cells, after incubation with DCs pulsed with 13 different group of peptide (Table 6). Just group n° 1 (A) and group n° 7 (B) are shown. (C, E) Number of IFNγ spot, representing IFNγ-secreting CD8+ T cells, after incubation with DCs pulsed with 4 peptides belong to group n° 7 (in table 7). (D) Sequence alignment of TMP1 and TMP2 of EH10815 (SEQ ID Nos: 228 and 229 respectively) compared to EH13144 (fragments of SEQ ID NO: 1) at the level of immunogenic peptides. Amino acid sequence […] corresponds to SEQ ID No: 13. Amino acid sequence […] corresponds to SEQ ID No: 217. Amino acid sequence […] corresponds to SEQ ID Nos: 14. Amino acid sequence AlIEFIKGL corresponds to SEQ ID No: 218. (E) In vitro reactivity of splenic CTL in a recall response to TMP1 and TMP2 as well as Group7 after in vivo immunization with other strains of EH.
A and C. Experimental setting. […] D-E. Ex vivo recall assays. […] Each dot represents one mouse.

CD8+ and CD4+ T cells = assay: Flow cytometry of T cells in mLN, spleen and tumor after oral gavage with E. hirae and CTX; format: in vivo, mice; conditions: for accumulation of CD8+ T cells in mLN and spleen: mLN after 1 week, spleen after 2 weeks
Procedure: FIG. 7. […] (A) Experimental setting. […] One day post-CTX, a second oral gavage with E. hirae is performed. 72 hours post-CTX, CD4+ and CD8+ T cells are isolated from mesenteric lymph node (mLN). Percentage of CD8+(B) and CD4+(C) T cells in mLN after oral gavage with E. hirae 708 or 13144 and CTX treatment. (D) Experimental setting. […] 5 days after the first oral gavage, mice are treated with CTX. One week post-CTX, CD8+ T cells are isolated from spleen. Percentage of CD8+ T cells (E) and CCR9+CXCR3+CD8 T cells (F) in spleen after oral gavage with E. hirae 708 or 13144 and CTX treatment.

[1] = test system: TMP1-specific CD8+ T cells
MCA205 sarcoma = assay: Prophylactic vaccination with pulsed DCs followed by MCA205 challenge; format: in vivo, C57BL/6 mice; conditions: poly I:C-activated BM-DC pulsed with peptides (20 μg/ml) or heat-inactivated bacteria, s.c. twice 10 days apart
Procedure: FIG. 16. Protocol of immunization with DC pulsed with TMP peptides. After DCs differentiation (with GM-CSF and IL-4 during 6 days), we incubated them with poly I:C (10 μg/ml) overnight before the addition of peptide (1 hour) or heat-inactivated bacteria (6 hours). These DCs are injected subcutaneous on right flank at day 0 and 10. […] We constitute 4 groups, one group without DCs, one group with DCs pulsed with 20 μg/ml of irrelevant peptides (gr1) or TMP peptides or 13144 heat-inactivated bacteria. Mean tumor sizes over time (A), each mouse tumor kinetics for each group (B), and the detailed comparison in between groups at the two last time points before sacrifice for MCA205 are shown (C), each dot representing one mouse. MC38 related data are not shown.
FIG. 17. […] Tumor growth of MCA205 in mice vaccinated with DCs pulsed with gr1 peptides, TMP peptides and E. hirae 13144. (A) Mean±SEM of tumor sizes at different kinetics. (B) Tumor growth kinetics for each individual group of 5-10 mice. (C) Tumor sizes and statistical differences at time of sacrifice.
A-B. Prophylactic vaccinations. […] C-D. Therapeutic settings.
After DCs differentiation, these DCs were activated with poly I:C (10 μg/ml, Invivogen) overnight before infection with heat-inactivated (2 h at 65° C.) bacterial strains (MOI 10) or pulsed with peptides (20 μg/ml, peptide 2.0). […]

For “Enterococcus hirae 708 [Peptide 708, reference compound]”, the “memory Tc1 immune response (IFNγ spots) to BM-DC infected with EH isolates” value (splenic CD8+ T cells) was “could induce memory Tc1 immune responses”, the “specific TC1 immune responses after restimulation with E. hirae strains loaded onto DC” value (splenic CD8+ T cells) was “failed to do so” and the “TC1 response against TMP1 in mice gavaged with the strain (IFNγ ELISpot)” value (splenic CD8+ T cells; Example 12, FIG. 27E) was “unable to do so”. The “accumulation of CD8+ T cells in mLN and spleen” value (from here on “accumulation of CD8+ T cells”) (CD8+ and CD4+ T cells) was “capable of inducing the accumulation of CD8+ T cells”.

In the case of “Enterococcus hirae strain 13144 [Peptide 13144]”, the “memory Tc1 immune response (IFNγ spots) to BM-DC infected with EH isolates” value (splenic CD8+ T cells) is reported as “could induce memory Tc1 immune responses”, the “specific TC1 immune responses after restimulation with E. hirae strains loaded onto DC” value (splenic CD8+ T cells) is reported as “triggered specific TC1 immune responses” and the “splenic CD8+ T cells recognizing the TMP1 peptide” value ([1]; day 12 following CTX/E. hirae 13144 regimen, FIG. 27F) is reported as “Up to 1%”. For the same substance, the “enrichment of TMP1-specific CTLs in the TC1 subset harboring CCR9” value ([1]; spleens from naive and tumor bearers, tumor draining lymph nodes) was 3-5 fold, the “protection against MCA205 tumor challenge” value (MCA205 sarcoma) was “reduced tumor growth” and the “CD4+ T cell pool in the mLN” value (CD8+ and CD4+ T cells; 72 hours post-CTX) was “amplified”. For the same substance, the “accumulation of CD8+CCR9+CXCR3+ T cells in spleen and tumor beds” value (CD8+ and CD4+ T cells; listed as EH13144) was “induce accumulation; also recorded: Sustained accumulation”, the “accumulation of CD8+ T cells” value (CD8+ and CD4+ T cells; listed as E. hirae 13144) was “Increased accumulation” and the “accumulation of CD8+ T cells” value (CD8+ and CD4+ T cells; listed as EH13144) was “capable of inducing the accumulation of CD8+ T cells”.
